From US20260193264A1, “BENZOYPARAZINE PYRAZINES AND THEIR USES” (FOGHORN THERAPEUTICS INC., priority 2022, published 2026)

Key:
[1] = target: T1, HiBit-BRG1 fusion protein in stable HeLa cell line expressing HiBit-BRG1 and LgBit (Homo sapiens, UniProt P51532); assay: HiBiT-BRG1 cell-based degradation assay (Nano-Glo HiBiT, 24 h); details: HeLa HiBit-BRG1/LgBit cells; for DC50: read-out: BRMG1 HiBit Degradation IC50; for Dmax: top dose 30 μM, read-out: BRG1 HiBit Degradation Maximum (%)
T1 construct: expressed in transfected cells
T1 sequence (P51532 whole entry, the tested form may be a part): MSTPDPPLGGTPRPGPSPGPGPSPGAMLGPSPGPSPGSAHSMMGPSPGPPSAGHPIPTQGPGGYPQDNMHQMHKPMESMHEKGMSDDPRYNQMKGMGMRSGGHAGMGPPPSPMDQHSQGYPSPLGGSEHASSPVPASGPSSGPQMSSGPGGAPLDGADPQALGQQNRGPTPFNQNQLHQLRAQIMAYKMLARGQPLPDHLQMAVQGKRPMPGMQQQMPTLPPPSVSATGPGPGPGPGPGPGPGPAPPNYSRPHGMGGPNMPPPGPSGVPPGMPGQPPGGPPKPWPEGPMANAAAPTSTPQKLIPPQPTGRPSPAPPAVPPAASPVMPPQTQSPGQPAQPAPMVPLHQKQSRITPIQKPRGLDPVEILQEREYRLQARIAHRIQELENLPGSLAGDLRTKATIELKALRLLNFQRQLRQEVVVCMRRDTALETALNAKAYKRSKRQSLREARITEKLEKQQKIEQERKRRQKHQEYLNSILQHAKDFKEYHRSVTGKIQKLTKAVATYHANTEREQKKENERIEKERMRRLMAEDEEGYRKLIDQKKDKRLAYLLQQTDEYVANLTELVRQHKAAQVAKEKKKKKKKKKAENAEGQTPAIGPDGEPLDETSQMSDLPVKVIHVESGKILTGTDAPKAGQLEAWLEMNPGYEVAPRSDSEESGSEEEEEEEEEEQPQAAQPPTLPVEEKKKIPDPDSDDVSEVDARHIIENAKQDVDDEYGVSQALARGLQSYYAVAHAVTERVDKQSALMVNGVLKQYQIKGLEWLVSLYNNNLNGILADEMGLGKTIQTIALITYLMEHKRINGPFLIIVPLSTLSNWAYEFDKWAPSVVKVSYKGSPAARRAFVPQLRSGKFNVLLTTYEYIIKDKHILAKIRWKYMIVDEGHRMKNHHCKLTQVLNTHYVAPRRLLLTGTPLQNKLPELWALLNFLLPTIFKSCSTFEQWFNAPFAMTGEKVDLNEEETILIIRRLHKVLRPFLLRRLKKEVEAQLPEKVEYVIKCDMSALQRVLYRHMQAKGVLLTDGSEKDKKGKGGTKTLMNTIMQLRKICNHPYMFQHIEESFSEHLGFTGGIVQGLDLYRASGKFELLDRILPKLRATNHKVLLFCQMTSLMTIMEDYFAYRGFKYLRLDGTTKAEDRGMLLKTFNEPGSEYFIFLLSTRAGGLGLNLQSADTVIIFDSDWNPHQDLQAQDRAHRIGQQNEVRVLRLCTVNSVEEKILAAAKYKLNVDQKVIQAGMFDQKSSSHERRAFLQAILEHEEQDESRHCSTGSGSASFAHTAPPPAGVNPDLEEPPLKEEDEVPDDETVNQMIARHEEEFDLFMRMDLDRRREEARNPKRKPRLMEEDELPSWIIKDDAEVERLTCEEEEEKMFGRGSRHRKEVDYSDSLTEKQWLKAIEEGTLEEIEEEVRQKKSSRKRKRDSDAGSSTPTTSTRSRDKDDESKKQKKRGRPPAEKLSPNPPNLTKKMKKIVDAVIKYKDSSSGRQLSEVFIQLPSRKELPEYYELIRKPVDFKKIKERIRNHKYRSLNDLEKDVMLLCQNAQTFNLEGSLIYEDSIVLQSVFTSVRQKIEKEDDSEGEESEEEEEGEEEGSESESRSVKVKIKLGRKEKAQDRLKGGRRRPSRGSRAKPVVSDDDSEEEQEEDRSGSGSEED
Experimental: Procedure: A stable HeLa cell line expressing HiBiT-BRM was generated. On day 0, 5000 cells were seeded in 40 μL of media into each well of 384-well cell culture plates. […] Subsequently plates were incubated for 24 h in a standard tissue culture incubator and equilibrated at room temperature for 15 minutes. Nano-Glo HiBiT Lytic Detection System (Promega N3050) reagent was freshly prepared and 20 ul was added to each well. Upon addition of this LgBit-containing reagent, the HiBiT and LgBiT proteins associate to form the luminescent NanoBiT luciferase. The plates were shaken for 10 minutes at room temperature and the bioluminescence read using an EnVision plate reader (PerkinElmer). For measurement of BRG1 degradation, a stable HeLa cell line expressing HiBit-BRG1 and LgBit was generated. The same protocol as above was then followed. The degradation % was calculated using the following formula: % degradation=100%−100%×(Lumsample−LumLC)/(LumHC−LumLC). DMSO treated cells are employed as High Control (HC) and 2 μM of a known BRM/BRG1 degrader standard treated cells are employed as Low Control (LC).

[2] = target: T2, HiBiT-BRM fusion protein in stable HeLa cell line (Homo sapiens, UniProt P51531); assay: HiBiT-BRM cell-based degradation assay (Nano-Glo HiBiT Lytic Detection, 24 h); set-up: DC50: scale not given here; details: HeLa HiBiT-BRM cells; for DC50: read-out: BRM HiBit Degradation IC50; for BRM HiBit Degradation Maximum (%): top dose 30 μM
T2 construct: expressed in transfected cells
T2 sequence (P51531 whole entry, the tested form may be a part): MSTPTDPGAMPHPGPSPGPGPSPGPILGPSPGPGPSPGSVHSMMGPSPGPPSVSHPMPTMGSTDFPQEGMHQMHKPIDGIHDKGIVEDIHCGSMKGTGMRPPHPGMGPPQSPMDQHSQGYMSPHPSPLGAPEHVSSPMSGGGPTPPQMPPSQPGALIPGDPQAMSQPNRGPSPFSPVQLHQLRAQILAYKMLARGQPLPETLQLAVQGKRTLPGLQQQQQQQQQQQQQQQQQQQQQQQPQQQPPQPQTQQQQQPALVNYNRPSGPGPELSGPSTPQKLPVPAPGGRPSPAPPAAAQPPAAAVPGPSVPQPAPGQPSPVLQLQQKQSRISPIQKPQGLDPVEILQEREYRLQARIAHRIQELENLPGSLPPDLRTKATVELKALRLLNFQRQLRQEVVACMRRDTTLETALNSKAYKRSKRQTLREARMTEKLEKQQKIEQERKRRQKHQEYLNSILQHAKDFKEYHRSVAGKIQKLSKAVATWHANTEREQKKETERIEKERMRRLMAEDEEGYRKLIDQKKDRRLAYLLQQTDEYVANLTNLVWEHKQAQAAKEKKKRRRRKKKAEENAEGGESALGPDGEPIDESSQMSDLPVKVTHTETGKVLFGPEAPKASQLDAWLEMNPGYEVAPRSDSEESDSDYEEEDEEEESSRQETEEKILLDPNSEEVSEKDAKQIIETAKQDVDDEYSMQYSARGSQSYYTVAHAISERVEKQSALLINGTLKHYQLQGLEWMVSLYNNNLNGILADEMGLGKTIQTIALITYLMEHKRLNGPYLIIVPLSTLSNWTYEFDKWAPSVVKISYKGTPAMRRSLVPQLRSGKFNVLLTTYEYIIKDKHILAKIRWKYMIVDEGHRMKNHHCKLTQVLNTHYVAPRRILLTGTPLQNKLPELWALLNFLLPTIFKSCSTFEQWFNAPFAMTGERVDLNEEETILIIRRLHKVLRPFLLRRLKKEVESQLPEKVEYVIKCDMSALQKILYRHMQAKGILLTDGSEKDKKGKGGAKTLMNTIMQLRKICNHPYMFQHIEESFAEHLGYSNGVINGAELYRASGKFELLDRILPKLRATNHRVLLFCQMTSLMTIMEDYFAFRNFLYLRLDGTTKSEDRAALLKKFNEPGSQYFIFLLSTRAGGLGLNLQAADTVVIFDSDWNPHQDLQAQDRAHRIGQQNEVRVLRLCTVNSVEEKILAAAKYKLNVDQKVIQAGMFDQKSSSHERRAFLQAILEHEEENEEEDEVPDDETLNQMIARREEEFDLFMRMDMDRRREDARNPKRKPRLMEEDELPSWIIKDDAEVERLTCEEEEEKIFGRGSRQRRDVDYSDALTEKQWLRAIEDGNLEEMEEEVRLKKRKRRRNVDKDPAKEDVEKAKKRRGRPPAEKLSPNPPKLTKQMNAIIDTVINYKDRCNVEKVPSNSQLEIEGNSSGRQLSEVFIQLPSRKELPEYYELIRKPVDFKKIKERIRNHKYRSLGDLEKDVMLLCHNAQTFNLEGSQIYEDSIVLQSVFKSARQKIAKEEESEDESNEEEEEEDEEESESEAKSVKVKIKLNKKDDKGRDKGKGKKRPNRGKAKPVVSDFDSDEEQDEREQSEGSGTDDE
Experimental: Procedure: A stable HeLa cell line expressing HiBiT-BRM was generated. On day 0, 5000 cells were seeded in 40 μL of media into each well of 384-well cell culture plates. On day 1, cells were treated with 120 nL DMSO or 120 nL of 3-fold serially DMSO-diluted compounds (10 points in duplicate with 30 μM as final top dose). Subsequently plates were incubated for 24 h in a standard tissue culture incubator and equilibrated at room temperature for 15 minutes. Nano-Glo HiBiT Lytic Detection System (Promega N3050) reagent was freshly prepared and 20 ul was added to each well. Upon addition of this LgBit-containing reagent, the HiBiT and LgBiT proteins associate to form the luminescent NanoBiT luciferase. The plates were shaken for 10 minutes at room temperature and the bioluminescence read using an EnVision plate reader (PerkinElmer).
The degradation % was calculated using the following formula: % degradation=100%−100%×(Lumsample−LumLC)/(LumHC−LumLC). DMSO treated cells are employed as High Control (HC) and 2 μM of a known BRM/BRG1 degrader standard treated cells are employed as Low Control (LC).

Compound | DC50 [1] [nM] | Dmax [1] [%] | DC50 [2] [nM] | BRM HiBit Degradation Maximum (%) [2]
Cc1ncsc1-c1ccc([C@H](C)NC(=O)[C@@H]2C[C@@H](O)CN2C(=O)C(c2cc(-c3cnc(N4CCC5(CC4)CC(c4ccc6cc(-c7ccccc7O)nnc6c4)C5)nc3)no2)C(C)C)cc1 (mixture of isomers) [Compound 65, (2S,4R)-4-hydroxy-1-(2-(3-(2-(2-(3-(2-hydroxyphenyl)cinnolin-7-yl)-7-azaspiro[3.5]nonan-7-yl)pyrimidin-5-yl)isoxazol-5-yl)-3-methylbutanoyl)-N-((S)-1-(4-(4-methylthiazol-5-yl)phenyl)ethyl)pyrrolidine-2-carboxamide] | > 10 | > 75 | < 10 | A (“A” indicates maximum degradation ≥75%)
Cc1ncsc1-c1ccc([C@H](C)NC(=O)[C@@H]2C[C@@H](O)CN2C(=O)[C@@H](c2cc(N3CC4(CN(c5ccc6cc(-c7ccccc7O)nnc6c5)C4)C3)no2)C(C)C)cc1 (single isomer, unassigned) [Compound 51] |  |  | < 10 | A (“A” indicates maximum degradation ≥75%)
Cc1ncsc1-c1ccc([C@H](C)NC(=O)[C@@H]2C[C@@H](O)CN2C(=O)[C@@H](c2cn(-c3ccc4nnc(-c5ccccc5O)cc4c3)nn2)C(C)C)cc1 (single isomer, unassigned) [Compound 161] | < 10 | > 75 | < 10 | A (“A” indicates maximum degradation ≥75%)
Cc1ncsc1-c1ccc([C@H](C)NC(=O)[C@@H]2C[C@@H](O)CN2C(=O)[C@@H](c2cc(N3CCC4(CC3)CC(Oc3ccc5nnc(-c6ccccc6O)cc5c3)C4)no2)C(C)C)cc1 (single isomer, unassigned) [Compound 185] | < 10 | > 75 | < 10 | A (“A” indicates maximum degradation ≥75%)
Cc1ncsc1-c1ccc([C@H](C)NC(=O)[C@@H]2C[C@@H](O)CN2C(=O)[C@@H](c2cc(N3CC4(CN(c5ccc6cc(-c7ccccc7O)nnc6c5)C4)C3)n(C)n2)C(C)C)cc1 (single isomer, unassigned) [Compound 194] |  | < 50 | > 100 | A (“A” indicates maximum degradation ≥75%)
Cc1ncsc1-c1ccc([C@H](C)NC(=O)[C@@H]2C[C@@H](O)CN2C(=O)[C@@H](c2cc(C3CC4(C3)CN(c3ccc5nnc(-c6ccccc6O)cc5c3)C4)no2)C(C)C)cc1 (single isomer, unassigned) [Compound 200] | < 10 | > 75 | < 10 | A (“A” indicates maximum degradation ≥75%)
Cc1ncsc1-c1ccc([C@H](C)NC(=O)[C@@H]2C[C@@H](O)CN2C(=O)[C@H](C2CC2)n2cc(N3CC4(CN(c5ccc6cc(-c7ccccc7O)nnc6c5)C4)C3)nn2)cc1 (single isomer, unassigned) [Compound 210] |  |  | < 10 | A (“A” indicates maximum degradation ≥75%)
Cc1ncsc1-c1ccc([C@H](C)NC(=O)[C@@H]2C[C@@H](O)CN2C(=O)C(c2cc(N3CCC4(CCC(c5ccc6nnc(-c7ccccc7O)cc6c5)CC4)CC3)no2)C(C)C)cc1 (stereo in doubt) [Compound 63, (2S,4R)-4-hydroxy-1-((S)-2-(3-(9-(3-(2-hydroxyphenyl)cinnolin-6-yl)-3-azaspiro[5.5]undecan-3-yl)isoxazol-5-yl)-3-methylbutanoyl)-N-((S)-1-(4-(4-methylthiazol-5-yl)phenyl)ethyl)pyrrolidine-2-carboxamide] | < 10 | > 75 | < 10 | A (“A” indicates maximum degradation ≥75%)
Cc1ncsc1-c1ccc(C(C)NC(=O)C2CC(O)CN2C(=O)[C@@H](c2cc(N3CCN([C@@H]4CCN(Cc5cc6nnc(-c7ccccc7O)cc6cc5Cl)CC4(F)F)CC3)no2)C(C)C)cc1 (stereo in doubt) [Compound 215, (2R,4S)-1-((R)-2-(3-(4-((R)-1-((6-chloro-3-(2-hydroxyphenyl)cinnolin-7-yl)methyl)-3,3-difluoropiperidin-4-yl)piperazin-1-yl)isoxazol-5-yl)-3-methylbutanoyl)-4-hydroxy-N-((R)-1-(4-(4-methylthiazol-5-yl)phenyl)ethyl)pyrrolidine-2-carboxamide] |  | < 50 | < 10 | A (“A” indicates maximum degradation ≥75%)
Cc1ncsc1-c1ccc(C(C)NC(=O)C2CC(O)CN2C(=O)[C@@H](c2cc(N3CCN([C@H]4CCN(Cc5cc6nnc(-c7ccccc7O)cc6cc5Cl)CC4(F)F)CC3)no2)C(C)C)cc1 (stereo in doubt) [Compound 216, (2R,4S)-1-((R)-2-(3-(4-((S)-1-((6-chloro-3-(2-hydroxyphenyl)cinnolin-7-yl)methyl)-3,3-difluoropiperidin-4-yl)piperazin-1-yl)isoxazol-5-yl)-3-methylbutanoyl)-4-hydroxy-N-((R)-1-(4-(4-methylthiazol-5-yl)phenyl)ethyl)pyrrolidine-2-carboxamide] |  | < 50 | > 10 | A (“A” indicates maximum degradation ≥75%)
Cc1ncsc1-c1ccc([C@H](C)NC(=O)[C@@H]2C[C@@H](O)CN2C(=O)C(F)(c2cc(N3CC4(CN(c5ccc6cc(-c7ccccc7O)nnc6c5)C4)C3)no2)C(C)C)cc1 (stereo in doubt) [Compound 221, (2S,4R)-1-((R)-2-fluoro-2-(3-(6-(3-(2-hydroxyphenyl)cinnolin-7-yl)-2,6-diazaspiro[3.3]heptan-2-yl)isoxazol-5-yl)-3-methylbutanoyl)-4-hydroxy-N-((S)-1-(4-(4-methylthiazol-5-yl)phenyl)ethyl)pyrrolidine-2-carboxamide] | > 10 | > 50 | < 10 | A (“A” indicates maximum degradation ≥75%)
Cc1ncsc1-c1ccc([C@H](C)NC(=O)[C@@H]2C[C@@H](O)CN2C(=O)C(C(C)C)n2cc(N3CC4(CN(c5ccc6cc(-c7ccccc7O)nnc6c5)C4)C3)cn2)cc1 (stereo in doubt) [Compound 257, (2S,4R)-4-hydroxy-1-((R)-2-(4-(6-(3-(2-hydroxyphenyl)cinnolin-7-yl)-2,6-diazaspiro[3.3]heptan-2-yl)-1H-pyrazol-1-yl)-3-methylbutanoyl)-N-((S)-1-(4-(4-methylthiazol-5-yl)phenyl)ethyl)pyrrolidine-2-carboxamide] |  | < 50 | < 10 | A (“A” indicates maximum degradation ≥75%)
Cc1ncsc1-c1ccc([C@H](C)NC(=O)[C@@H]2C[C@@H](O)CN2C(=O)[C@@H](c2cc(OCCN3CC(c4ccc5nnc(-c6ccccc6O)cc5c4)C3)no2)C(C)C)cc1 [Compound 1, (2S,4R)-4-hydroxy-1-[(2R)-2-[3-(2-{3-[3-(2-hydroxyphenyl)cinnolin-6-yl]azetidin-1-yl}ethoxy)-1,2-oxazol-5-yl]-3-methylbutanoyl]-N-[(1S)-1-[4-(4-methyl-1,3-thiazol-5-yl)phenyl]ethyl]pyrrolidine-2-carboxamide] |  | < 50 | > 10 | B (“B” indicates maximum degradation ≥50%)
Cc1ncsc1-c1ccc([C@H](C)NC(=O)[C@@H]2C[C@@H](O)CN2C(=O)[C@@H](c2cc(N3CCC(CN4CC(c5ccc6nnc(-c7ccccc7O)cc6c5)C4)CC3)no2)C(C)C)cc1 [Compound 2, (2S,4R)-4-hydroxy-1-((R)-2-(3-(4-((3-(3-(2-hydroxyphenyl)cinnolin-6-yl)azetidin-1-yl)methyl)piperidin-1-yl)isoxazol-5-yl)-3-methylbutanoyl)-N-((S)-1-(4-(4-methylthiazol-5-yl)phenyl)ethyl)pyrrolidine-2-carboxamide] |  | < 50 | > 10 | A (“A” indicates maximum degradation ≥75%)
